Test results published in US11389413B2, “Methods of preparing compositions containing thymoquinone” (Jina Pharmaceuticals, Inc., priority 2017, dated 2022).

Key:
[1] = test system: streptozotocin (STZ) induced diabetic mice; assay: Hypoglycemic activity in streptozotocin-induced diabetic mice (blood glucose, water intake); assay type: in vivo, Male ICR (CD-1) mice
Description: Induction of Experimental Diabetes in Mice: Male ICR (CD-1) mice (8-9 weeks of age) were fasted for 6 hrs. before streptozotocin (STZ) administration. Fresh STZ solution at 15 mg/mL was prepared by dissolving powder STZ into 1 mM citrate buffer (pH 4.5). Mice received i.p. STZ solution of 150 mg/kg. Fasting blood glucose level was measured from tail vein blood. Mice with blood glucose levels of 250 mg/dL or higher were considered to be diabetic. Blood samples with “HI” (>600 mg/dL) reading were diluted with same amount of normal saline before measuring again.
A total of 20 diabetic mice were randomized based on the blood glucose levels into two study groups, group A: Metformin (Met)-treated, and group B: Thymoquinone/Metformin (TQ/Met)-treated groups.
There were 10 animals in each group. Mice in group A received oral administration of Met at a dose of 200 mg/kg every day. Mice in group B received oral administration of Met+TQ (200 mg/kg+50 mg/kg) every day using a 20-Ga stainless feeding needle. Fasting blood glucose level was measured weekly.
Water intake was also estimated by weighing each water bottle before and after a period of 24 hrs. The volume of water consumed was estimated from the weight of water consumed. The volume of water consumed by each cage was normalized with body weight and presented as mL/30 g BW over 24 hrs.

[2] = cited from earlier work
[3] = test system: Lipopolysaccaride/D-Galactosamine (LPS/GaIN) induced acute liver failure; assay: LPS/GalN induced acute liver failure, survival; assay type: in vivo, Male C57BL6 mice; conditions: TQ 200 mg/kg oral gavage 30 min after LPS/GalN injection; all control mice died in over 7 hrs
Description: A total of 13 male C57BL6 mice (5-6 weeks of age) were injected intraperitoneally with D-galactosamine (GaIN, Carbosynth) (800 mg/kg) and lipopolysaccharide (LPS from E coli 0127:B8, Sigma-Aldrich) (10 μg/kg) dissolved in normal saline. 30 min after LPS/GalN injection, 6 mice in the control group received purified water (20 mL/kg) and 7 mice received a TQ at a dose of 200 mg/kg, via oral gavage. Survival was monitored for 48 hrs. All mice in the control group died in over 7 hrs. period following the injection of LPS/GalN, while 4 out of 7 mice treated with TQ survived up to 48 hrs. (see FIG. 2).

[4] = cited from earlier work; remark: listed apart in the source

Compound	Blood Glucose Level, Pre-Treat ([1]; fasting blood glucose, STZ diabetic mice, before treatment, Mean ± SD, n = 10)	Blood Glucose Level, 1-Week Treat ([1]; fasting blood glucose, oral daily dosing, 1 week, Mean ± SD, n = 10)	Blood Glucose Level, 2-Week Treat ([1]; fasting blood glucose, oral daily dosing, 2 weeks, Mean ± SD, n = 10)	Blood Glucose Level, 3-Week Treat ([1]; fasting blood glucose, oral daily dosing, 3 weeks, Mean ± SD, n = 10)	decrease in blood glucose level ([1]; over 3-week period, oral daily, Met 200 mg/kg, Met+TQ 200 mg/kg+50 mg/kg)	solubility in aqueous buffers [2]	mice surviving up to 48 hrs [3]	stability in aqueous solutions [4]
CN(C)C(=N)N=C(N)N [Met, Metformin]	443 ± 102 mg/dL	433 ± 115 mg/dL	290 ± 84 mg/dL	299 ± 96 mg/dL	32.5%			
CC1=CC(=O)C(C(C)C)=CC1=O [TQ, 2-Isopropyl-5-methyl-1,4-benzoquinone]						approx. 500 μg/mL	4 out of 7	highly unstable
